Data as given in paper PMC11302733, “Bioactivity of synthetic peptides from Ecuadorian frog skin secretions against Leishmania mexicana, Plasmodium falciparum, and Trypanosoma cruzi” (Microbiology Spectrum, 2024).
Like-named read-outs stand apart in the source and are kept apart here. No end group written: not given here.

What was measured:
[1] = Cytotoxicity, resazurin reduction assay; type: cell-based; conditions: Macaca mulatta, LLC-MK2 cells (Macaca mulatta kidney cells), 100.0–0.195 µM, three independent assays in duplicate wells, read-out: IC50 (CC50) Llc-mk2, with 95% confidence interval
Procedure: (§1) RAW 264.7 murine macrophages and Macaca mulatta kidney cells (LLC-MK2) were cultured in 75-cm^2 flasks with 10-mL Dulbecco’s Modified Eagle’s Medium (DMEM) supplemented with 10% fetal bovine serum and 1% penicillin/streptomycin (DMEM-10) medium. Culture conditions were 37°C, 5% CO2, and 95% relative humidity. RAW 264.7 cells were rinsed with PBS, detached with a cell scraper, and passaged every 96 h. LL-MCK2 were subcultured weekly, at 1:4 ratio, via trypsinization.
(§2) The toxicity of the studied AMPs over LLC-MK2 and RAW 264 cells was determined via a resazurin (RZN) reduction assay ([42]). Briefly, 2 × 10^4 cells/well were seeded in DMEM-10 in 96-well plates. Twenty-four hours later, culture medium was removed, and 10 twofold serial dilutions (100.0–0.195 µM) of each AMP in 200-µL volume were placed in duplicate wells. The plate was placed on the incubator in the dark at 37°C and 5% CO2. Ten microliters of 3-mM RZN sodium salt in PBS per well was added, and the plate was incubated for 24 h. Finally, the fluorescence was measured (530- to 560-nm excitation and 590-nm emission wavelengths). Three independent assays were performed for each peptide.

[2] = Cytotoxicity, resazurin reduction assay; type: cell-based, murine; conditions: mouse
Procedure: as §1, §2

[3] = test system: T. cruzi trypomastigotes (Tulahuen, Tula β-gal); type: cell-based, Trypanosoma cruzi; conditions: trypomastigotes (Tulahuen, Tula β-gal, 4 h)
Procedure: T. cruzi trypomastigote culture was performed as reported previously ([35], [36]). LLC-MK2 cell monolayers were infected with 5 × 10^5 trypomastigotes in 10-mL DMEM supplemented with 2% FBS and 1% penicillin/streptomycin (DMEM-2), for 48 h at 37°C, 5% CO2 and 98% relative humidity. Parasites were subsequently removed by rinsing with PBS, and 10-mL fresh DMEM-2 was added. Five days post-infection, trypomastigotes were harvested from the culture for the trypanocidal activity assays.
Wells containing parasites not exposed to peptides and treated with 0.1% Triton served as 100% lysis reference. Plates were incubated in the dark at 37°C and 5% CO2 for 4 h, and absorbance was read at 590 nm. Experiments were performed in duplicate wells. Three independent assays were performed for each peptide.

[4] = test system: intracellular T. cruzi amastigotes (Tula β-gal) in LLC-MK2 cells; conditions: read-out: IC50 T. cruzi amastigotes, with 95% confidence interval, 96 h, CPRG read-out, three independent assays
Procedure: Leishmania mexicana strain M379, P. falciparum reference clones NF54 (chloroquine-sensitive, isolated from a patient at an airport in the Netherlands) and TM90C2B (C2B) (chloroquine, mefloquine, and atovaquone resistant, from Thailand) and T. cruzi, β-galactosidase-expressing, Tulahuen strain parasites (C4 clone; +lacZ, henceforth abbreviated as Tula β-gal) ([33]) were employed in the study.
LLC-MK2 cells, 2 × 10^4/well, were seeded and allowed to attach overnight to 96-well plates. he medium was removed and cells were infected with 1 × 10^5 parasites in DMEM-2 for 24 h. Cell monolayers were washed four times with PBS, and serial dilutions of AMPs (100.0- to 0.195-µM range) in DMEM-2 without phenol red were added to duplicate wells. Wells containing infected cells not exposed to peptides served as parasite growth reference. The infection was allowed to proceed for 96 h. Subsequently, lysis solution was added to each well to a final concentration of 100-µM CPRG and 0.1% Triton and incubated for 2 h. Absorbance was measured at 590 nm ([41]). Three independent assays were performed for each peptide.
Half-maximal inhibitory concentration (IC50) and half-maximal cytotoxic concentration (CC50) with 95% confidence intervals in GraphPad Prism software (v.9.2.0., non-linear regression with curve fitting [model: log (inhibitor) vs response (three parameters)]. The selectivity index (SI) was determined by dividing the CC50 value of RAW 264.7 cells by the IC50 of the parasites.

[5] = test system: P. falciparum NF54; type: cell-based, Plasmodium falciparum; conditions: NF54, 72 h
Procedure: (§3) P. falciparum was cultured in human O + erythrocytes in Roswell Park Memorial Institute medium 1640, supplemented with 25-mM HEPES buffer, 10-mM glucose, 2-mM glutamine, and O + human plasma. Parasites were cultured under low-oxygen atmosphere (5% O2, 5% CO2, and 90% N2) ([34]) and maintained in fresh human erythrocytes suspended at 4% hematocrit in complete medium at 37°C. Stock cultures were subpassaged every 3–4 days by transfer of infected red cells to a flask containing complete medium and uninfected erythrocytes.
(§4) In vitro sensitivity to peptides was tested using a previously described SYBR green I fluorescence-based method ([39], [40]). Assays were set up in 96-well plates with twofold peptide dilutions in 150-μL total volume and 1.5% (vol/vol) final red blood cell concentration. Stock solutions of each peptide were prepared in DMSO. Experiments were started at an initial parasitemia of 0.5% (80% rings) synchronous parasite-infected red blood cells. Plates were incubated for 72 h at 37°C in an atmosphere of 5% CO2, 5% O2, and 90% N2. The SYBR green I dye-lysis mixture (l:100) was added to the parasites in black plates that were incubated at room temperature for an hour in the dark. The plates were then read using a fluorescence plate reader at excitation and emission wavelengths of 480 and 535 nm, respectively. Experiments were performed in duplicate wells. Three independent assays were performed for each peptide.

[6] = test system: P. falciparum TM90C2B (C2B); type: cell-based, Plasmodium falciparum; conditions: TM90C2B (C2B, 72 h)
Procedure: as §3, §4

[7] = test system: Leishmania mexicana strain M379 promastigotes; type: cell-based; conditions: for SI L. mexicana: RAW 264.7 CC50/parasite IC50; for IC50: promastigotes 1 × 10^6/well, SDM without FBS, 48 h at 25°C, MTT, three independent assays in triplicate, read-out: IC50 L. mexicana, with 95% confidence interval
Procedure: L. mexicana promastigote stock cultures were maintained in USHMARU biphasic medium [blood agar slant overlayed with 3 mL of Schneider’s Drosophila medium (SDM), containing 10% fetal bovine serum (FBS)] at 25°C. Promastigotes were collected by centrifugation and washed with PBS, and culture medium was replaced every 2 days. Every 4 days, the parasites were transferred to a new tube and to a 25-cm^2 tissue culture flask containing 10 mL of monophasic medium (SDM + 10% FBS + 1% penicillin/streptomycin). If present, rosettes were disrupted by passing the culture through 10-mL syringes with 27G needles.
Parasite viability was measured colorimetrically via 3-(4,5-dimethylthiazol-2-yl)-2,5-diphenyltetrazole bromide tetrazolium salt (MTT) reduction. Promastigotes were placed in 96-well conical-bottom plates in SDM + 1% penicillin/streptomycin without FBS, at a density of 1 × 10^6/well. Untreated parasites (growth control), 1-µM amphotericin B diluted in DMSO (positive control), 0.25% DMSO (negative control), and each of the peptides at a final concentration of 0.1, 0.5, 1.0, 5.0, and 10.0 µM were included in triplicate wells. Plates were incubated at 25°C for 48 h. Subsequently, 20-µL 10% MTT was added per well. Plates were incubated for 2 h in the dark at the same temperature and centrifuged at 4,000 rpm for 10 min, and the supernatant was removed. Formazan crystals were diluted with 50-µL DMSO, and absorbances (A570–630) were read ([37], [38]). Three independent assays were performed for each peptide.

[8] = test system: Candida albicans ATCC 10231; type: cell-based; conditions: ATCC 10231, 16 h
Procedure: (§5) The minimum inhibitory concentration (MIC) of CZS-4 over Escherichia coli American Type Culture Collection (ATCC) 25922, Staphylococcus aureus ATCC 29213, and Candida albicans ATCC 10231 was determined, as previously described ([28], [30], [31]). In brief, overnight cultures of each microorganism were subcultured in Muller-Hinton Broth (MHB) until reaching 1 × 10^6 CFU/mL for bacteria and 1 × 10^5 CFU/mL for yeast. Peptide serial dilutions in dimethylsulfoxide (DMSO), ranging from 0.4 to 209.4 µM were prepared, and 2 µL of each peptide dilution was added to 198-µL diluted bacterial or yeast culture in a 96-well sterile plate (with five replicates). Sterile MHB and microbial culture with DMSO were negative controls. Plates were incubated for 16 h at 37°C. Microorganism growth was measured at 600 nm.

[9] = test system: Escherichia coli ATCC 25922; type: cell-based; conditions: ATCC 25922, 16 h
Procedure: as §5

[10] = test system: Staphylococcus aureus ATCC 29213; type: cell-based; conditions: ATCC 29213, 16 h
Procedure: as §5

[11] = test system: red blood cell; type: cell-based
Procedure: Hemolytic activity was determined using 200 µL of 4% red blood cell solution incubated with 200 µL of serial dilutions peptide (0.4–209.4 µM) in phosphate-buffered saline (PBS) 1× (five replicates). Negative controls contained PBS instead of peptide; positive controls contained 2% vol/vol Triton X-100 to yield complete hemolysis. Assays were incubated at 37°C for 2 h, and samples were centrifuged at […] for 5 min. Two-hundred microliters of supernatant was transferred to a 96-well plate and absorbance was measured at 550 nm.

[12] = RAW 264.7 macrophages, resazurin reduction, 24 h, 100.0–0.195 µM, three independent assays in duplicate wells, read-out: IC50 (CC50) Raw 264.7, with 95% confidence interval

GFLDVLKGVGKAALGAVTHLINQ-NH2 [CZS-16] gave a CC50 at 24 h [1] of 5.59 µM, a CC50 at 24 h [2, 12] of 4.4 µM and an IC50 [3] of 18.7 µM. For the same substance, the IC50 [4] was 38.3 µM, the IC50 [5] was 36.8 µM and the IC50 [6] was 34.4 µM.
“ASWKVFLKNIGKAAGKAVLNSVTDMVNQ-NH2 [DRS-SP2]” gave a CC50 at 24 h [2] of 3.14 µM, an IC50 [5] of 12.1 µM and an IC50 [6] of 15.3 µM. The “SI L. mexicana” value [7] was 5.15 and the IC50 [7] was 0.61 µM.
GFLDIVKGVGKVALGAVSKLF-NH2 [CZS-1] showed a CC50 at 24 h [1] of 3.17 µM, a CC50 at 24 h [2, 12] of 2.38 µM and an IC50 [3] of 2.87 µM. For the same substance, the IC50 [4] was 16.7 µM, the IC50 [5] was 31.2 µM and the IC50 [6] was 16.8 µM. For the same substance, the “SI L. mexicana” value [7] was 4.41 and the IC50 [7] was 0.54 µM.
GFLDTLKNIGKTVGRIALNVLT-NH2 [PTS-1] showed a CC50 at 24 h [1] of 80.1 µM, a CC50 at 24 h [2, 12] of 2.52 µM and an IC50 [3] of 1.42 µM. For the same substance, the IC50 [4] was 30.2 µM, the IC50 [5] was 52.6 µM and the IC50 [6] was 24.9 µM. The “SI L. mexicana” value [7] was 25.20 and the IC50 [7] was 0.1 µM.
For GFLDVIKHVGKAALSVVSHLINE-NH2 [CZS-4], the MIC [8] was 52.36 µM, the MIC [9] was 13.09 µM and the MIC [10] was 26.18 µM. For the same substance, the Hemolysis ([11]; 128 µM) was 13%, the Hemolysis ([11]; 2 h) was “less than 9.1%” and the “Hemolysis (%)” value ([11]; 2 h, 13.09 µM) was 1.2%. The “Hemolysis (%)” value ([11]; 2 h, 26.18 µM) was 9.1%, the “Hemolysis (%)” value ([11]; 2 h, 104.73 µM) was 28.5% and the “Hemolysis (%)” value ([11]; 2 h, 209.46 µM) was 36.3%. The CC50 at 24 h [1] was 70.7 µM, the CC50 at 24 h [2, 12] was 48 µM and the IC50 [3] was 1.55 µM. For the same substance, the IC50 [4] was 30.7 µM, the IC50 [5] was 13.9 µM and the IC50 [6] was 4.87 µM. For the same substance, the “SI L. mexicana” value [7] was 532.89 and the IC50 [7] was 0.09 µM.
